Assay results as given in US20170190671A1, “BIS(ARYL)CATECHOL DERIVATIVES AS HERBICIDES” (E I DU PONT DE NEMOURS AND COMPANY, priority 2014, published 2017).
Each block holds one molecule with its values, some of them ahead of it.

Experiments:
[1] = tested on: barnyardgrass (Echinochloa crus-galli); assay: Test B flooded paddy; type: in vivo; conditions: Echinochloa crus-galli, 336 h; 250 g ai/ha, Flood, 13 to 15 days, scale 0 (no effect) to 100 (complete control); read-out: Plant response rating, Barnyardgrass
From the text: (§1) At time of treatment, test pots were flooded to 3 cm above the soil surface, treated by application of test compounds directly to the paddy water, and then maintained at that water depth for the duration of the test. Treated plants and controls were maintained in a greenhouse for 13 to 15 days, after which time all species were compared to controls and visually evaluated. […] A dash (-) response means no test result.

[2] = tested on: ducksalad (Heteranthera limosa); assay: Test B flooded paddy; type: in vivo; conditions: Heteranthera limosa, 336 h; 250 g ai/ha, Flood, 13 to 15 days, scale 0 (no effect) to 100 (complete control); read-out: Plant response rating, Ducksalad
From the text: as §1

rice (Oryza sativa) = assay: Test B flooded paddy; type: in vivo; conditions: Oryza sativa, 336 h; 250 g ai/ha, Flood, 13 to 15 days, scale 0 (no effect) to 100 (complete control); read-out: Plant response rating, Rice
From the text: as §1

[3] = tested on: sedge, umbrella (small-flower umbrella sedge, Cyperus difformis); assay: Test B flooded paddy; type: in vivo; conditions: Cyperus difformis, 336 h; 250 g ai/ha, Flood, 13 to 15 days, scale 0 (no effect) to 100 (complete control); read-out: Plant response rating, Sedge, Umbrella
From the text: as §1

[4] = tested on: barnyardgrass (Echinochloa crus-galli); assay: Test A preemergence; type: in vivo; conditions: Echinochloa crus-galli, pre-emergence, 240 h; for pest or weed control at 125 g/ha: 125 g ai/ha
Summary of the method: (§2)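 Injury scores run from 0, no effect, to 100, complete control, judged by eye against untreated plants roughly 10 days after treatment. Chemicals carried a surfactant in a non-phytotoxic solvent and went onto loam–sand soil preemergence or onto one- to two-leaf seedlings postemergence.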

corn (Zea mays) [5] = assay: Test A preemergence; type: in vivo; conditions: 0 to 100 scale
Summary of the method: as §2

[6] = tested on: giant foxtail (Setaria faberii); assay: Test A preemergence; type: in vivo; conditions: Setaria faberi, pre-emergence, 240 h; for pest or weed control at 125 g/ha: 125 g ai/ha
Summary of the method: as §2

[7] = tested on: large (Lg) crabgrass (Digitaria sanguinalis); assay: Test A preemergence; type: in vivo; conditions: 0 to 100 scale
Summary of the method: as §2

[8] = tested on: morningglory (Ipomoea spp.); assay: Test A preemergence; type: in vivo; conditions: 0 to 100 scale
Summary of the method: as §2

[9] = tested on: pigweed (Amaranthus retroflexus); assay: Test A preemergence; type: in vivo; conditions: Amaranthus retroflexus, pre-emergence, 240 h; for pest or weed control at 125 g/ha: 125 g ai/ha
Summary of the method: as §2

[10] = tested on: velvetleaf (Abutilon theophrasti); assay: Test A preemergence; type: in vivo; conditions: 0 to 100 scale
Summary of the method: as §2

[11] = tested on: wheat (Triticum aestivum); assay: Test A preemergence; type: in vivo; conditions: 0 to 100 scale
Summary of the method: as §2

[12] = tested on: barnyardgrass (Echinochloa crus-galli); assay: Test A postemergence; type: in vivo; conditions: Echinochloa crus-galli, post-emergence, 240 h, 0 to 100 scale, read-out: Plant response rating, Barnyardgrass; for pest or weed control at 125 g/ha: 125 g ai/ha
Summary of the method: as §2

corn (Zea mays) [13] = assay: Test A postemergence; type: in vivo; conditions: Zea mays, post-emergence, 240 h, 0 to 100 scale; for Corn plant response rating (crop injury, 0 = no effect, 100 = complete kill) at 125 g/ha: 125 g ai/ha
Summary of the method: as §2

[14] = tested on: giant foxtail (Setaria faberii); assay: Test A postemergence; type: in vivo; conditions: Setaria faberi, post-emergence, 240 h, 0 to 100 scale, read-out: Plant response rating, Foxtail, Giant; for pest or weed control at 125 g/ha: 125 g ai/ha
Summary of the method: as §2

[15] = tested on: large (Lg) crabgrass (Digitaria sanguinalis); assay: Test A postemergence; type: in vivo; conditions: 0 to 100 scale
Summary of the method: as §2

[16] = tested on: morningglory (Ipomoea spp.); assay: Test A postemergence; type: in vivo; conditions: 0 to 100 scale
Summary of the method: as §2

[17] = tested on: pigweed (Amaranthus retroflexus); assay: Test A postemergence; type: in vivo; conditions: Amaranthus retroflexus, post-emergence, 240 h, 0 to 100 scale, read-out: Plant response rating, Pigweed; for pest or weed control at 125 g/ha: 125 g ai/ha
Summary of the method: as §2

[18] = tested on: velvetleaf (Abutilon theophrasti); assay: Test A postemergence; type: in vivo; conditions: 0 to 100 scale
Summary of the method: as §2

[19] = tested on: wheat (Triticum aestivum); assay: Test A postemergence; type: in vivo; conditions: Triticum aestivum, post-emergence, 240 h, 0 to 100 scale, read-out: Plant response rating, Wheat; for plant injury at 125 g/ha: 125 g ai/ha
Summary of the method: as §2

[20] = tested on: Italian ryegrass (Lolium multiflorum); assay: Test A preemergence; type: in vivo; conditions: Lolium multiflorum, pre-emergence, 240 h, 0 to 100 scale (0 no effect, 100 complete control), read-out: Ryegrass, Italian plant response rating
Summary of the method: as §2

kochia (Kochia scoparia) [21] = assay: Test A preemergence; type: in vivo; conditions: Bassia scoparia, pre-emergence, 240 h, 0 to 100 scale (0 no effect, 100 complete control), read-out: Kochia plant response rating
Summary of the method: as §2

[22] = tested on: ragweed (common ragweed, Ambrosia elatior); assay: Test A preemergence; type: in vivo; conditions: Ambrosia artemisiifolia, pre-emergence, 240 h, 0 to 100 scale (0 no effect, 100 complete control), read-out: Ragweed plant response rating
Summary of the method: as §2

[23] = tested on: Italian ryegrass (Lolium multiflorum); assay: Test A postemergence; type: in vivo; conditions: Lolium multiflorum, post-emergence, 240 h, 0 to 100 scale, read-out: Plant response rating, Ryegrass, Italian
Summary of the method: as §2

[24] = tested on: blackgrass (Alopecurus myosuroides); assay: Test A postemergence; type: in vivo; conditions: Alopecurus myosuroides, post-emergence, 240 h, 0 to 100 scale, read-out: Plant response rating, Blackgrass
Summary of the method: as §2

[25] = tested on: galium (catchweed bedstraw, Galium aparine); assay: Test A postemergence; type: in vivo; conditions: Galium, post-emergence, 240 h, 0 to 100 scale, read-out: Plant response rating, Galium
Summary of the method: as §2

kochia (Kochia scoparia) [26] = assay: Test A postemergence; type: in vivo; conditions: Bassia scoparia, post-emergence, 240 h, 0 to 100 scale, read-out: Plant response rating, Kochia
Summary of the method: as §2

[27] = tested on: ragweed (common ragweed, Ambrosia elatior); assay: Test A postemergence; type: in vivo; conditions: Ambrosia artemisiifolia, post-emergence, 240 h, 0 to 100 scale, read-out: Plant response rating, Ragweed
Summary of the method: as §2

[28] = 0 to 100 scale, read-out: Plant response rating, Barnyardgrass

SMILES: N#Cc1cccc(Oc2ncc(F)cn2)c1Oc1ncc(F)cn1 [Compound 2, 2,3-bis[(5-fluoro-2-pyrimidinyl)oxy]benzonitrile]
- pest or weed control at 250 g/ha [1]: 20%
- pest or weed control at 250 g/ha [2]: 70%
- plant injury at 250 g/ha (rice (Oryza sativa)): 15%
- pest or weed control at 250 g/ha [3]: 60%
- pest or weed control at 125 g/ha [4, 28]: 20%
- pest or weed control at 500 g/ha ([4]; 500 g ai/ha, 0 to 100 scale, read-out: Plant response rating, Barnyardgrass): 100%
- Plant response rating, Corn (corn (Zea mays) [5]; 125 g ai/ha): 20
- Plant response rating, Corn (corn (Zea mays) [5]; 500 g ai/ha): 60
- pest or weed control at 125 g/ha ([6]; 0 to 100 scale, read-out: Plant response rating, Foxtail, Giant): 100%
- pest or weed control at 500 g/ha ([6]; 500 g ai/ha, 0 to 100 scale, read-out: Plant response rating, Foxtail, Giant): 100%
- Plant response rating, Crabgrass, Large ([7]; 125 g ai/ha): 100
- Plant response rating, Crabgrass, Large ([7]; 500 g ai/ha): 100
- Plant response rating, Morningglory ([8]; 125 g ai/ha): 50
- Plant response rating, Morningglory ([8]; 500 g ai/ha): 100
- pest or weed control at 125 g/ha ([9]; 0 to 100 scale, read-out: Plant response rating, Pigweed): 100%
- pest or weed control at 500 g/ha ([9]; 500 g ai/ha, 0 to 100 scale, read-out: Plant response rating, Pigweed): 100%
- Plant response rating, Velvetleaf ([10]; 125 g ai/ha): 40
- Plant response rating, Velvetleaf ([10]; 500 g ai/ha): 100
- Plant response rating, Wheat ([11]; 125 g ai/ha): 20
- Plant response rating, Wheat ([11]; 500 g ai/ha): 30
- pest or weed control at 125 g/ha [12]: 20%
- pest or weed control at 500 g/ha ([12]; 500 g ai/ha): 90%
- Corn plant response rating (crop injury, 0 = no effect, 100 = complete kill) at 125 g/ha (corn (Zea mays) [13]): 0%
- Corn plant response rating (crop injury, 0 = no effect, 100 = complete kill) at 500 g/ha (corn (Zea mays) [13]; 500 g ai/ha): 90%
- pest or weed control at 125 g/ha [14]: 40%
- pest or weed control at 500 g/ha ([14]; 500 g ai/ha): 100%
- Plant response rating, Crabgrass, Large ([15]; 125 g ai/ha): 30
- Plant response rating, Crabgrass, Large ([15]; 500 g ai/ha): 100
- Plant response rating, Morningglory ([16]; 125 g ai/ha): 60
- Plant response rating, Morningglory ([16]; 500 g ai/ha): 90
- pest or weed control at 125 g/ha [17]: 90%
- pest or weed control at 500 g/ha ([17]; 500 g ai/ha): 100%
- Plant response rating, Velvetleaf ([18]; 125 g ai/ha): 70
- Plant response rating, Velvetleaf ([18]; 500 g ai/ha): 90
- plant injury at 125 g/ha [19]: 20%
- plant injury at 500 g/ha ([19]; 500 g ai/ha): 90%

- melting point: 94 to 98 °C
SMILES: Fc1cnc(Oc2c(F)ccc(F)c2Oc2ncc(Cl)cn2)nc1 [Compound 28]
- pest or weed control at 31 g/ha ([20]; 31 g ai/ha): 0%
- pest or weed control at 125 g/ha ([20]; 125 g ai/ha): 0%
- pest or weed control at 31 g/ha ([4]; 31 g ai/ha, 0 to 100 scale (0 no effect, 100 complete control), read-out: Barnyardgrass plant response rating): 0%
- pest or weed control at 125 g/ha [4, 28]: 10%
- pest or weed control at 31 g/ha ([6]; 31 g ai/ha, 0 to 100 scale (0 no effect, 100 complete control), read-out: Foxtail, Giant plant response rating): 10%
- pest or weed control at 125 g/ha ([6]; 0 to 100 scale (0 no effect, 100 complete control), read-out: Foxtail, Giant plant response rating): 40%
- pest or weed control at 31 g/ha (kochia (Kochia scoparia) [21]; 31 g ai/ha): 0%
- pest or weed control at 125 g/ha (kochia (Kochia scoparia) [21]; 125 g ai/ha): 20%
- pest or weed control at 31 g/ha ([9]; 31 g ai/ha, 0 to 100 scale (0 no effect, 100 complete control), read-out: Pigweed plant response rating): 50%
- pest or weed control at 125 g/ha ([9]; 0 to 100 scale (0 no effect, 100 complete control), read-out: Pigweed plant response rating): 80%
- pest or weed control at 31 g/ha ([22]; 31 g ai/ha): 0%
- pest or weed control at 125 g/ha ([22]; 125 g ai/ha): 0%
- pest or weed control at 31 g/ha ([23]; 31 g ai/ha): 0%
- pest or weed control at 125 g/ha ([23]; 125 g ai/ha): 0%
- pest or weed control at 31 g/ha ([12]; 31 g ai/ha): 0%
- pest or weed control at 125 g/ha [12]: 0%
- pest or weed control at 31 g/ha ([24]; 31 g ai/ha): 0%
- pest or weed control at 125 g/ha ([24]; 125 g ai/ha): 20%
- Corn plant response rating (crop injury, 0 = no effect, 100 = complete kill) at 31 g/ha (corn (Zea mays) [13]; 31 g ai/ha): 0%
- Corn plant response rating (crop injury, 0 = no effect, 100 = complete kill) at 125 g/ha (corn (Zea mays) [13]): 0%
- pest or weed control at 31 g/ha ([25]; 31 g ai/ha): 20%
- pest or weed control at 125 g/ha ([25]; 125 g ai/ha): 70%
- pest or weed control at 31 g/ha ([14]; 31 g ai/ha): 0%
- pest or weed control at 125 g/ha [14]: 20%
- pest or weed control at 31 g/ha (kochia (Kochia scoparia) [26]; 31 g ai/ha): 30%
- pest or weed control at 125 g/ha (kochia (Kochia scoparia) [26]; 125 g ai/ha): 70%
- pest or weed control at 31 g/ha ([17]; 31 g ai/ha): 50%
- pest or weed control at 125 g/ha [17]: 60%
- pest or weed control at 31 g/ha ([27]; 31 g ai/ha): 10%
- pest or weed control at 125 g/ha ([27]; 125 g ai/ha): 30%
- plant injury at 31 g/ha ([19]; 31 g ai/ha): 0%
- plant injury at 125 g/ha [19]: 0%
